Experimental findings from ChEMBL document CHEMBL1131305, “1-[2(R)-(2-amino-2-methylpropionylamino)-3-(1H-indol-3-yl)propionyl]- 3-benzylpiperidine-3(S)-carboxylic acid ethyl ester (L-163,540): a potent, orally bioavailable, and short-duration growth hormone secretagogue” (J Med Chem, 1998) are described below.

One series is filed under the species Rattus norvegicus. Put plainly: Effective concentration for half-maximal release of growth hormone determined in the rat pituitary cell assay, normalized against standard L692,429 (60 nM). The class given is functional. As to conditions: Pituitary gland cell.
Series [1] is described as follows: Maximum plasma concentration following oral administration of 3.8 mg/kg in Beagle dog. The series is classed as ADME, organism-based, Canis lupus familiaris. The arrangement: dose 3.8 mg/kg, route oral.
Series [2] is described as follows: Bioavailability in dogs at 3.8 mg/kg oral dose. The class given is ADME, organism-based, Canis lupus familiaris. Particulars: dog, in vivo.
Series [3] is described as follows: Maximum plasma concentration following oral administration of 26.3 mg/kg in rats. The series is classed as ADME, organism-based. Set-up: dose 26.3 mg/kg, route oral. Particulars: rat.
The nature of series [4]: Clearance rate at 5.5 mg/kg, iv, in rat. The class given is ADME, organism-based. The arrangement: dose 5.5 mg/kg. Particulars: in vivo.
A short description of series [5]: Half-life determined at 0.46 mg/kg, iv, in dogs. The class given is ADME, organism-based, Canis lupus familiaris. Set-up: dose 0.46 mg/kg. Particulars: dog, in vivo.
Series [6] can be described thus: Half-life determined at 5.5 mg/kg, iv, in rat. The series is classed as ADME, organism-based. The arrangement: dose 5.5 mg/kg. As to conditions: in vivo.
Series [7] can be described thus: Clearance rate at 0.46 mg/kg, iv, in dogs. The series is classed as ADME, organism-based, Canis lupus familiaris. The arrangement: dose 0.46 mg/kg. As to conditions: dog, in vivo.
A short description of series [8]: Volume of distribution was determined in rat at 5.5 mg/kg, iv. As to conditions: in vivo, read-out: Vdss. The arrangement: dose 5.5 mg/kg, route intravenous. The class given is ADME, organism-based.
The nature of series [9]: Bioavailability in rats at 26.3 mg/kg oral dose. The class given is ADME, organism-based. Particulars: rat, in vivo.
Series [10] can be described thus: Volume of distribution was determined in dogs at 0.46 mg/kg, iv. The series is classed as ADME, organism-based, Canis lupus familiaris. The arrangement: dose 0.46 mg/kg, route intravenous. As to conditions: dog, in vivo, read-out: Vdss.

Consider `CC(C)(N)C(=O)N[C@H](Cc1c[nH]c2ccccc12)C(=O)N1CCC[C@@](Cc2ccccc2)(C(=O)O)C1`, for which the EC50 – broadly, the concentration needed to bring the measured effect to its halfway point – in the series filed under Rattus norvegicus is 190 nM.
As for `CCNC(=O)[C@]1(Cc2ccccc2)CCCN(C(=O)[C@@H](Cc2c[nH]c3ccccc23)NC(=O)C(C)(C)N)C1`, a half-maximal effect in the series listed under Rattus norvegicus (EC50) was put at 0.8 nM.
Still for that read-out and setting: with `CCOC(=O)[C@]1(Cc2ccccc2)CCCN(C(=O)[C@@H](CCCc2ccccc2)NC(=O)C(C)(C)N)C1` the figure was 8 nM; with `CCOC(=O)[C@]1(Cc2ccccc2)CCN(C(=O)[C@@H](Cc2c[nH]c3ccccc23)NC(=O)C(C)(C)N)C1`, above 50 nM.
In turn, `CCOC(=O)[C@@]1(Cc2ccccc2)CCCN(C(=O)[C@@H](Cc2c[nH]c3ccccc23)NC(=O)C(C)(C)N)C1` showed an EC50 in the series filed under Rattus norvegicus of 22 nM. That is a double-digit nanomolar value.
On to `CCOC(=O)[C@]1(Cc2ccccc2)CCCN(C(=O)[C@@H](Cc2c[nH]c3ccccc23)NC(=O)C(C)(C)N)C1`, for which the Cmax (usually the peak of the concentration-time curve) worked out at 560 ng/mL in [1] and 182 ng/mL in series [3]. In addition, the bioavailability (commonly the share of a dose that reaches the circulation, judged against a reference dose that is usually intravenous) in series [2] worked out at 29%; in series [9], 12.1%. For the same compound, the clearance (usually a measure of how efficiently the substance is removed, as volume per time) in series [4] came to 206 mL/min/kg; in series [7] it was 23 mL/min/kg. For the same compound, the half-life (in general, the time in which the quantity being followed falls by half) was 72 min in series [5] and 24 min in series [6]. In addition, the Vd turned out to be 2.7 L/kg in series [8] and 1.3 L/kg in [10].
Regarding `CCOC(=O)[C@]1(Cc2ccccc2)CCCN(C(=O)[C@@H](COCc2ccccc2)NC(=O)C(C)(C)N)C1`, the response in the series listed under Rattus norvegicus was half-maximal at 20 nM (EC50).
Still for that read-out and setting: with `CCOC(=O)[C@]1(Cc2ccccc2)CCCN(C(=O)[C@@H](Cc2c[nH]c3ccccc23)NC(=O)C(C)N)C1` (stereo partly drawn) the figure was 6 nM; with `CCOC(=O)[C@]1(Cc2ccccc2)CCCCN(C(=O)[C@@H](Cc2c[nH]c3ccccc23)NC(=O)C(C)(C)N)C1`, above 200 nM.
